The text below walks through data of the RepoRT retention time repository.

The nature of this data set: RP, Waters ACQUITY UPLC BEH C18, 50 × 2.1 mm, 1.7 µm, 40 °C, 0.6 mL/min, estimated dead time 0.18 min; A: water + 0.1% formic acid, pH 3; B: acetonitrile + 0.1% formic acid, pH 3; gradient (min/%B) 0/5 7/100 8/100. Particulars: stereoisomer not certain.
`O=C1c2ccc(O)cc2OC(c2ccc(O)cc2)C1C1C(=O)c2ccc(O)cc2OC1c1ccc(O)cc1` (stereo not given): the LC retention time is 2.67 min.

For `COc1cc(-c2oc3cc(OC)c(OC)c(O)c3c(=O)c2OC)ccc1O`, the LC retention time is 2.66 min.

`COC(=O)C1=COC(C)C2CN3CCC4(C(=O)Nc5ccccc54)C3CC12` (stereo not given): the LC retention time is 1.69 min.

In the case of `CCCC(CC(=O)O)C1=C2OC(=O)C(C(=O)C(C)CC)=C(O)C2(CC=C(C)C)CC(CC=C(C)C)C1(C)C` (stereo not given), the LC retention time is 6.55 min.

Take `COc1ccc2c(c1)CC1c3c(cc4c(c3-2)OCO4)CCN1C` (stereo not given): the LC retention time is 2.15 min.

Consider `COc1ccc(-c2cc(=O)c3c(O)cc(O)cc3o2)cc1-c1c(O)cc(O)c2c(=O)cc(-c3ccc(O)cc3)oc12`, for which the LC retention time was 3.1 min.

With `C=C(C)C(CC=C(C)C)Cc1c(O)cc(OC)c2c1OC(c1ccc(O)cc1O)CC2=O` (stereo not given), the LC retention time is 4.6 min.

On to `C=C(C)C12CC(C)C34OC(CCCCCCCCCCCCC)(OC1C3C1OC1(CO)C(O)C1(O)C(=O)C(C)=CC14)O2` (stereo not given), for which the LC retention time is 6.97 min.

Turning to `C/C=C1/CN(C)C[C@H]2Cc3c([nH]c4ccccc34)C(=O)C[C@@H]12`, the LC retention time was 1.62 min.

For the compound `COc1cc(C=O)c([N+](=O)[O-])cc1OC` [4,5-dimethoxy-2-nitrobenzaldehyde], the LC retention time is 0.304 min.

As for `CC(C)(O)/C=C/C(=O)[C@](C)(O)[C@H]1[C@H](O)C[C@@]2(C)C3CC=C4C(C=C(O)C(=O)C4(C)C)[C@]3(C)C(=O)C[C@]12C` (stereo not given in full), the LC retention time is 3 min.

Take `C/C=C(/C)C(=O)OC1CCC2CC3(O)OC(=O)C(C)=C3CC2(C)C1C` (stereo not given): the LC retention time was 4.16 min.

For `CC[C@@]12CC(C(=O)OC)=C3Nc4ccccc4[C@@]34CCN(C[C@H]3O[C@H]31)C24` (stereo not given in full), the LC retention time was 1.96 min.

Regarding `COc1ccc2c(c1OC)C(=O)OC2C1c2c(cc3c(c2OC)OCO3)CCN1C` (stereo not given), the LC retention time was 1.83 min.

Turning to `C=C(C(=O)C(OC(C)=O)C(C)C1C(OC(C)=O)CC2(C)C3CCC4C(C)C(=O)C=CC45CC35CCC12C)C(C)C` (stereo not given), the LC retention time is 5.46 min.

As for `COC(=O)C1=C2CCC3=C2C2(C1)C1(C)CCC4C(C)CN(CC1CC3)C42O` (stereo not given), the LC retention time is 2.17 min.

Consider `C=C1COC(=O)C12C[C@@]1(C)C([C@@H](OC(=O)/C=C/SC)CC[C@@H]1C)[C@H]2OC(=O)/C(C)=C\C` (stereo not given in full), for which the LC retention time was 4.71 min.

`COc1cc(CC(COC(C)=O)C(COC(=O)/C=C/c2ccc(O)c(O)c2)Cc2ccc(O)c(OC)c2)ccc1O` (stereo not given): the LC retention time was 1.83 min.

For the compound `C=C(C(=O)C(O)C(C)C1C(OC(C)=O)CC2(C)C3CCC4C(C)C(=O)C=CC45CC35CCC12C)C(C)CO` (stereo not given), the LC retention time is 4.1 min.

Turning to `COc1cc2c(cc1OC)-c1c3c(cc4c1C(C2)N(C)CC4)OCO3` (stereo not given), the LC retention time was 1.84 min.

As to `C=C1CCC(C(C)C)=CC2C1CCC2(C)O` (stereo not given), the LC retention time is 3.02 min.

Take `CC(=O)OC(C)(C)/C=C/C(=O)[C@](C)(O)[C@H]1[C@H](O)C[C@@]2(C)C3CC=C4C(CC(=O)C(O)C4(C)C)[C@]3(C)C(=O)C[C@]12C` (stereo not given in full): the LC retention time is 2.88 min.

With `CC(=O)OC1CC(O)C23COC(O)C1(C)C2CC(O)C1(C)C3=C(O)C(=O)C2(C)C(c3ccoc3)CC3OC312` (stereo not given), the LC retention time was 2.39 min.

As for `CC1CC2CC3CCCC(=O)N3C3CCC(O)C(C1)N23` (stereo not given), the LC retention time was 0.92 min.

For `Oc1ccc(C2Oc3cc(O)cc4c3C2c2cc(O)cc(O)c2C(c2ccc(O)cc2)C2c3cc(O)cc(O)c3C(c3ccc(O)cc3)C42)cc1` (stereo not given), the LC retention time was 2.23 min.

Turning to `CC1(C(=O)O)CCCC2(C)C3CCC4CC3(C=C4C=O)CCC12` (stereo not given), the LC retention time is 4 min.

Turning to `CN1CCc2cc3c(c4c2C1CC41C=CC(=O)C=C1)OCO3` (stereo not given), the LC retention time is 1.08 min.

For the compound `CCCCCCCCCCCCO[C@@H]1O[C@@H](C)[C@H](OC(C)=O)[C@@H](O[C@@H]2O[C@@H](C)[C@H](OC(C)=O)[C@@H](O[C@@H]3O[C@@H](C)[C@H](OC(C)=O)[C@@H](O)[C@H]3O)[C@H]2OC(C)=O)[C@H]1O`, the LC retention time is 6.32 min.

As for `COc1ccc(OC)c([N+](=O)[O-])c1/C=C/[N+](=O)[O-]` [1,4-dimethoxy-2-nitro-3-[(1E)-2-nitroethenyl]benzene], the LC retention time is 0.72 min.

On to `COc1c(O)ccc2c1C(OC)N(C)c1c-2ccc2cc3c(cc12)OCO3` (stereo not given), for which the LC retention time is 2.48 min.

In the case of `COc1cc2c3cc1Oc1c(cccc1OC)CC1c4c(cc(O)c(OC)c4Oc4cccc(c4)CC3N(C)CC2)CCN1C` (stereo not given), the LC retention time is 1.59 min.

`CC(C)=CCC1CC2(CC=C(C)C)C(O)=C(C(=O)C(C)C)C(=O)OC2=C(C(CC(=O)O)c2ccccc2)C1(C)C` (stereo not given): the LC retention time was 6.13 min.

For `COc1cc2c(cc1O)CC1NCCc3cc(OC)c(OC)c-2c31` (stereo not given), the LC retention time is 1.58 min.

Regarding `COc1cc2c(cc1O)C(Cc1ccc(OC3=CC4(C=CC3=O)CC3c5c(cc(OC)c(OC)c54)CCN3C)cc1)N(C)CC2` (stereo not given), the LC retention time is 1.59 min.

With `COc1cc2c3c(c1OC)Oc1ccc(cc1)CC1c4c(cc(OC)c5c4Oc4ccc(cc4CO5)CC3N(C)CC2)CCN1C` (stereo not given), the LC retention time is 1.6 min.

Consider `CC[C@H]1NC2C[C@@]3(C(=O)N(OC)c4cc(OC)ccc43)C3CC1C2CO3` (stereo not given in full), for which the LC retention time is 1.95 min.

For the compound `COc1cc2c(cc1OC)Oc1c(O)ccc3c1C(C2)N(C)CC3` (stereo not given), the LC retention time was 1.37 min.

On to `C/C=C1\CN2CCc3c([nH]c4ccccc34)[C@@H]2C[C@@H]1/C(=C\OC)C(=O)OC`, for which the LC retention time is 2.41 min.

Turning to `O=C(c1ccc(O)cc1O)[C@H]1[C@H](C(=O)c2ccc(O)cc2O)[C@H](c2ccc(O)cc2)O[C@@H]1c1ccc(O)cc1`, the LC retention time is 2.81 min.

`COc1c(CC=C(C)C)c(O)c(CC=C(C)C)c(O)c1C(=O)c1ccc(O)cc1`: the LC retention time is 4.77 min.

As to `COC(=O)C1=CC(O)C23OC1CC2(C)CC[C@H](C(C)C)O3` (stereo not given in full), the LC retention time was 3.33 min.

In the case of `C=C1[C@@H](O)C[C@H]2C(C)(C)C[C@H](O)C[C@]2(C)[C@H]1CC1C(C)=CCC2C(=O)C(OC)=CC(=O)C21c1cc(=O)c2c(O)cc(O)cc2o1` (stereo not given in full), the LC retention time is 0.702 min.

With `CC(C)(O)/C=C/C(=O)[C@](C)(O)[C@H]1[C@H](O)C[C@@]2(C)C3CC=C4C(CC(=O)C(O)C4(C)C)[C@]3(C)C(=O)C[C@]12C` (stereo not given in full), the LC retention time was 2.9 min.

On to `C=C1C(=O)C23C(O)CC4C(C)(C)CCCC4(COC(C)=O)C2C(O)CC1C3O` (stereo not given), for which the LC retention time was 2.42 min.

For `COc1cc2c(cc1OC)-c1c(OC)c(OC)cc3c1C(C2)N(C)CC3` (stereo not given), the LC retention time was 1.87 min.

For the compound `COc1ccc(-c2oc3cc(O)c(OC)c(O)c3c(=O)c2OC)cc1O`, the LC retention time was 2.2 min.

Turning to `CCC(C)C(=O)C1=C(O)C2(CC=C(C)C)CC(CC=C(C)C)C(C)(C)C(C(CC(=O)O)c3ccccc3)=C2OC1=O` (stereo not given), the LC retention time is 6.36 min.

Turning to `COc1c(O)cc2c3c1C1(C=CC(=O)C=C1)CC3N(C)CC2` (stereo not given), the LC retention time was 0.738 min.

`CC1=CC2CC(C)C(CO)/C=C(\C)C(O)C(=O)/C=C(\C)CCC12` (stereo not given): the LC retention time was 4.1 min.

In the case of `C[C@@H]1O[C@@H](Oc2c(-c3ccc(O)c(O)c3)oc3cc(O)cc(O)c3c2=O)[C@H](O)[C@H](O)[C@H]1O`, the LC retention time was 0.266 min.
